Data: ChEMBL document CHEMBL3046443, “Lipid lowering and antioxidant activity of flavones in triton treated hyperlipidemic rats” (2011)

Columns and labels:
Assay type in all cases: functional
[1] = Antioxidant activity assessed as hydroxyl radical scavenging activity at 100 ug/ml
[2] = Antioxidant activity assessed as hydroxyl radical scavenging activity at 200 ug/ml
Rattus norvegicus [3] = assay: Antihyperlipidemic activity in Rattus norvegicus Charles Foster (rat) trition WR-1339-induced hyperlipidemic model assessed as reduction of total cholesterol level in plasma at 200 mg/kg, po; set-up: scale not given: the % may be the effect or the level left
Rattus norvegicus [4] = assay: Antihyperlipidemic activity in Rattus norvegicus Charles Foster (rat) trition WR-1339-induced hyperlipidemic model assessed as reduction of total phospholipid level in plasma at 200 mg/kg, po; set-up: scale not given: the % may be the effect or the level left
[5] = Antioxidant activity assessed as inhibition of xanthine-xanthine oxidase generated superoxide anion radical production at 200 ug/ml after 30 min by NBT reduction assay
Rattus norvegicus [6] = assay: Antihyperlipidemic activity in Rattus norvegicus Charles Foster (rat) trition WR-1339-induced hyperlipidemic model assessed as reduction of total triglyceride level in plasma at 200 mg/kg, po; set-up: scale not given: the % may be the effect or the level left
[7] = Antioxidant activity assessed as inhibition of xanthine-xanthine oxidase generated superoxide anion radical production at 100 ug/ml after 30 min by NBT reduction assay

| SMILES | Activity [1] [%] | Activity [2] [%] | Activity (Rattus norvegicus [3]) [%] | Activity (Rattus norvegicus [4]) [%] | inhibition [5] [%] | Activity (Rattus norvegicus [6]) [%] | inhibition [7] [%] |
| --- | --- | --- | --- | --- | --- | --- | --- |
| O.O=C1CC(c2ccc(O)cc2)Oc2cc(O)cc(O)c21 (centres undefined) [NARINGENIN HYDRATE] | 26 | 38 | 27 | 27 | 34 | 26 | 19 |
| C/C=C1\C(=O)C[C@H]2[C@@H]3CCC4=CC(=O)CC[C@]4(C)[C@H]3CC[C@]12C [GUGGULSTERONE] |  |  | 35 | 35 |  | 36 |  |
| OC[C@@H](O)[C@@H](O)[C@H](O)[C@H](O)CO |  | -48 |  |  |  |  |  |
| O=c1c(O)c(-c2cc(O)c(O)c(O)c2)oc2cc(O)cc(O)c12 [MYRICETIN] | -36 | 53 | 24 | 25 |  | 24 | 27 |
| C[C@@H]1O[C@@H](OC[C@H]2O[C@@H](Oc3c(-c4ccc(O)c(O)c4)oc4cc(O)cc(O)c4c3=O)[C@H](O)[C@@H](O)[C@@H]2O)[C@H](O)[C@H](O)[C@H]1O [RUTIN] | 21 | 32 | 8 | 10 | 35 | 11 | 18 |
